In the assay the target is T1, Hes1 dimer formation (Hes1-Hes1 interaction) (Rattus norvegicus, UniProt Q04666).
T1 construct: Glutathione-S-transferase (GST) fused rat Hes1(3–281) protein was expressed in Escherichia coli; GST (N, cleaved yes); GST (N); made in house; host or cells: Escherichia coli JM109 (pGEX-ratHes1 3-281)
T1 sequence (Q04666 3-281): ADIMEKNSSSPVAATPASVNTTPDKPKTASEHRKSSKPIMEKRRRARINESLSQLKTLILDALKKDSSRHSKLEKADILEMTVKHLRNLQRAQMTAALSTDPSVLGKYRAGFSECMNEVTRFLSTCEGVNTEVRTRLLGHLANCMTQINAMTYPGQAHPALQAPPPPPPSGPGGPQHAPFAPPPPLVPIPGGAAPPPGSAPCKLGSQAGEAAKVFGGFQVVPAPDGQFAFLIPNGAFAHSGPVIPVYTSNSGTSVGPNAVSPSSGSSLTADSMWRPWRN
In words: Hes1-Hes1 interaction fluorescent plate assay (Hes1 dimer formation inhibition). It counts as binding. Particulars: for remaining activity at 100 µM: 100 μM compound; for remaining activity at 5 µM: 5 μM compound. The text has this:
It is essential to inhibit undesired PPIs in drug development, and bioactivity-guided isolation using the inhibitory activity of PPIs is an attractive method to obtain effective inhibitors. However, currently there are only a few examples of such approaches using PPI assay systems[22],[23]. We previously developed a Hes1-Hes1 interaction fluorescent plate assay and reported the screening results of our natural products compound library (Fig. 2A)[24]. Glutathione-S-transferase (GST) fused rat Hes1(3–281) protein was expressed in Escherichia coli and purified rat Hes1 protein was immobilized on the bottom of 96 well plates. We prevented GST-GST interactions, which would result in false positives, by preparing GST-free Hes1 protein by GST cleavage with Turbo3C protease. After labeling Hes1 with Cy3, this florescent Hes1 protein was added to the wells of the above plate and incubated for 24 h at 4 °C. Hes1-Hes1 interaction was successfully detected as Cy3 fluorescence intensity. Using this assay system, we screened our 118 plant extract library and identified the MeOH extract of Psidium guajava leaves to contain naturally occurring compounds that inhibit Hes1 dimer formation. The MeOH extract (29.9 g) was fractionated using Diaion HP-20 with a MeOH-acetone solvent system to afford fractions 1A to 1C. Active fraction 1A (27.2 g) was suspended in 10% aq. MeOH and partitioned with hexane, EtOAc and BuOH to obtain hexane (1.1 g), EtOAc (5.7 g), BuOH (4.7 g) and aqueous (18.9 g) soluble fractions. Part of the active BuOH soluble fraction was subjected to ODS column chromatography and reverse-phase HPLC. Activity-guided separation yielded ten compounds (1–10; Fig. 3). The isolated compounds were identified as morin (1)[25], isoquercitrin (2)[26], methyl gallate (3)[27], (+)-catechin (4)[28],[29], dihydrophaseic acid (5)[30], quercetin (6)[26],[31], avicularin (7)[32],[33], gallic acid (8)[34], protocatechuic acid (9)[35] and 4-hydroxybenzoic acid (10)[36] based on comparisons of their spectral data with spectra in the literature.
Hes1-bound microplate wells[24] (Nunc Immobilizer^TM Amino Plate, Thermo) were incubated with 50 μL of Cy3-labeled-Hes1 in NET-N buffer (NET buffer (20 mM Tris-HCl, pH 7.5, 200 mM NaCl, 1 mM EDTA) containing 0.05% Nonidet® P-40, ca. 7 mg/L, dye/protein = 0.4) for 24 h at 4 °C. After removing the protein solution, the wells were washed twice with 200 μL of PBST, then each compound solution (in NET-N buffer, 50 μL) was added and the plates were incubated for 1 h at RT in the dark. The wells were washed twice with 200 μL of PBST, then dried under reduced pressure for 1 h in the dark. The Cy3 dye was excited at 544 nm and emission was monitored at 590 nm using a microplate reader (Fluoroskan Ascent, Thermo Labsystems, Vantaa, Finland). The assays were typically carried out in three individual wells, and the mean value and SD were calculated. The equilibrium between dimer formation between Cy3-Hes1/Cy3-Hes1 (in solution) and Cy3-Hes1/immobilized-Hes1 allowed the detection of Cy3-Hes1/immobilized-Hes1.
Typical procedure; Nunc Immobilizer^TM Amino 96 well Plate, white (Nalge Nunc Int., NY, USA) was used for immobilizing of Hes1. The micro plate wells were incubated with 100 µl of Hes1 (10 µg/mL in PBS) 2 h at 4 °C. After removing protein solution, the wells were incubated for 2 h at 4 °C with 100 µL of 10 mM ethanolamine (in 100 mM Na2CO3 buffer, pH 9.6) to block remaining activated units on the well. Then, wells were washed twice with 200 µL of PBST (PBS containing 0.05% Tween 20).
The Cy3 dye reagent was prepared as 1 vial of Cy3 monofunctional dye reagent (succinimidylester type; GE Healthcare, Buckinghamshire, UK) in DMSO (50 µL) and stored at -20 °C. Cy3-labeled Hes1 was prepared by mixing of protein in PBS with Cy3 dye reagent in DMSO (typically 0.6 µL of DMSO solution to 1 mL of 10 mg/L protein solution in PBS) for 30 min at 4 °C in the dark. […]

The mark [1] stands for this setting: 24 h, 25 μM compound, 0 μM = 100, read-out: Hes1 dimer formation rate (%).
Where [2] appears, read: 24 h, 50 μM compound, 0 μM = 100, read-out: Hes1 dimer formation rate (%).
The mark [3] stands for this setting: 24 h, 0 μM = 100, read-out: Hes1 dimer formation rate (%).
Setting [4] is: 24 h, 10 μM compound, 0 μM = 100, read-out: Hes1 dimer formation rate (%).
The mark [5] stands for this setting: Cy3-labeled Hes1 / immobilized Hes1, compound 1 h at RT, read-out: Hes1 dimer formation inhibitory activity IC50.
[6] abbreviates: 24 h, read-out: Hes1 dimer formation rate (%).
Where [7] appears, read: Hes1 dimer formation inhibitory activity IC50, Cy3-labeled Hes1 / immobilized Hes1, compound 1 h at RT.

Where two headings read alike, the source gives them in different places.

The record followed here is paper PMC6987128, “Target protein-oriented isolation of Hes1 dimer inhibitors using protein based methods” (Scientific Reports, 2020).

For the compound `CC(C=CC1(O)C2(C)COC1(C)CC(O)C2)=CC(=O)O` (stereo not drawn) [Compound 5, dihydrophaseic acid], the remaining activity at 25 µM under setting [1] came out at 125%. In addition, the remaining activity at 50 µM under setting [2] was determined as 122%. In addition, under setting [3], the remaining activity at 100 µM was 127%.

Take `COC(=O)c1cc(O)c(O)c(O)c1` [Compound 3, methyl gallate]: under setting [3], the remaining activity at 5 µM was found to be 68.4%. Further, under setting [4], the remaining activity at 10 µM came out at 54.3%. The remaining activity at 25 µM under setting [1] turned out to be 39.2%. Moreover, the IC50 (as a rule, the concentration that inhibits the measured activity by half) under setting [5] came out at 12.7 µM.

With `O=c1c(O)c(-c2ccc(O)c(O)c2)oc2cc(O)cc(O)c12` [Compound 6, quercetin], the remaining activity at 30 µM (24 h, 30 μM compound, 0 μM = 100, read-out: Hes1 dimer formation rate (%)) was determined as 82.5%. Where the note is “24 h, 40 μM compound, 0 μM = 100, read-out: Hes1 dimer formation rate (%)”, the remaining activity at 40 µM is 66.5%. The remaining activity at 50 µM under setting [2] amounted to 35.7%. The IC50 under setting [5] came to 45.1 µM.

Take `O=c1c(O[C@@H]2O[C@@H](CO)[C@H](O)[C@H]2O)c(-c2ccc(O)c(O)c2)oc2cc(O)cc(O)c12` [Compound 7, avicularin]: the remaining activity at 5 µM under setting [3] was 74.6%. Moreover, under setting [1], the remaining activity at 25 µM turned out to be 51.3%. The remaining activity at 50 µM under setting [2] worked out at 23.8%. Also, the half-maximal inhibitory concentration (IC50) under setting [5] was 26.5 µM.

Turning to `Oc1cc(O)c2c(c1)O[C@H](c1ccc(O)c(O)c1)[C@@H](O)C2` [Compound 4, (+)-catechin], the remaining activity at 25 µM under setting [1] is 95.4%. Moreover, the remaining activity at 50 µM under setting [2] came to 79.2%. Besides, under setting [3], the remaining activity at 100 µM came out at 78.8%.

In the case of `O=c1c(O)c(-c2ccc(O)cc2O)oc2cc(O)cc(O)c12` [Compound 1, morin], the remaining activity at 5 µM under setting [3] was determined as 89.7%. Under setting [1], the remaining activity at 25 µM is 79.2%. Moreover, under setting [2], the remaining activity at 50 µM amounted to 37.8%. For the same compound, the IC50 under setting [5] was 40.8 µM.

For the compound `O=C(O)c1ccc(O)cc1` [Compound 10, 4-hydroxybenzoic acid], under setting [1], the remaining activity at 25 µM was determined as 58.8%. Besides, the remaining activity at 50 µM under setting [2] turned out to be 50.4%. In addition, under setting [3], the remaining activity at 100 µM stood at 39.8%. Also, the half-inhibitory concentration (IC50) under setting [5] was 51.2 µM.

Take `O=c1c(O[C@@H]2O[C@H](CO)[C@@H](O)[C@H](O)[C@H]2O)c(-c2ccc(O)c(O)c2)oc2cc(O)cc(O)c12` [Compound 2, isoquercitrin]: the remaining activity at 20 µM (24 h, 20 μM compound, 0 μM = 100, read-out: Hes1 dimer formation rate (%)) amounted to 67.2%. In addition, for the setting “24 h, 60 μM compound, 0 μM = 100, read-out: Hes1 dimer formation rate (%)”, the remaining activity at 60 µM worked out at 34.5%. The remaining activity at 80 µM (24 h, 80 μM compound, 0 μM = 100, read-out: Hes1 dimer formation rate (%)) is 28.3%. Moreover, the concentration for half-maximal inhibition (IC50) under setting [5] turned out to be 35.7 µM.

Consider `O=C(O)c1ccc(O)c(O)c1` [Compound 9, protocatechuic acid], for which, under setting [6], the remaining activity at 10 µM is 61.7%, the remaining activity at 25 µM stood at 49.3% and the remaining activity at 50 µM was found to be 44.9%. The IC50 under setting [5] came out at 23.8 µM.

Regarding `O=C(O)c1cc(O)c(O)c(O)c1` [Compound 8, gallic acid], under setting [3], the remaining activity at 5 µM amounted to 53.9%. In addition, the remaining activity at 10 µM under setting [4] amounted to 50.7%. The remaining activity at 25 µM under setting [1] worked out at 26.2%. For the same compound, under setting [7], it took 10.3 µM to reach half-maximal inhibition (IC50).

In the case of `O=C(O)c1cc(O)c(O)c(O)c1` [Commercially available gallic acid, gallic acid, reference compound], half-maximal inhibition under setting [7] (IC50) was put at 8.9 µM.
